By solubility is commonly meant the dissolved amount per volume that the medium holds. A high value points to a readily soluble substance.

This is an account of results in patent US12435061B2 (priority 2020, dated 2025).

One series concerns the target hTRPV3 (Homo sapiens (Human), UniProt Q8NET8). The experiment in a line: Whole-cell patch clamp, hTRPV3 Phase 1 / Phase 2 currents. The series is classed as cell-based. The essentials:
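Currents are activated by 20 μM 2-APB or by perfusate at 28 °C or warmer, in Ringer's solution, and quantified at ±80 mV.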
(The patch-clamp technique gives a direct electrical read-out from membranes.)

A short description of series [1]: Aqueous solubility assay in Normal Ringer Solution. To be noted: Normal Ringer Solution; for solubility at 40 min: saline or isotonic, kinetic from dmso stock. As for the experimental part:
Following vortex and incubation for a sufficient time (e.g. 40 minutes at room temperature), solutions were filtered, quenched with acetonitrile, and analyzed by Liquid Chromotography. Solubility Limits were determined by comparison to a standard curve.

Series [2] is described as follows: Metabolic Stability assay, rat liver microsomes. The series is classed as in vitro ADME. To be noted: for half-life at 1 μM: read-out: LM T1/2 (min) (rat). As for the experimental part: Metabolic Stability assay: The metabolic stability was determined by adding compound dissolved in DMSO to human or rat, liver microsomes. Briefly, assays were run with a starting concentration of 1 μM test article. The reaction was started by addition of NADPH regeneration components at 37° C. at which time an aliquot was immediately quenched in ice-cold acetonitrile/MeOH/H2O solution. Reaction mixture was incubated at 37° C. on a shaker, and additional aliquots were taken at 7, 15, 30 and 60 minutes. Following quench and centrifugation, samples were analyzed on HPLC/MS/MS.
(Microsomes from liver hold many membrane-bound enzymes, among them those of drug oxidation.)

Where [3] appears, read: Phase 1 current, inward, whole-cell patch clamp, read-out: hTRPV3 Patch P1 Inwd.
[4] abbreviates: Phase 1 current, read-out: hTRPV3 (nM) (Phase 1).
Setting [5] is: Phase 2 current, inward, whole-cell patch clamp, read-out: hTRPV3 Patch P2 Inwd.
[6] abbreviates: Phase 2 current, read-out: hTRPV3 (nM) (Phase 2).

Converted amounts (≈) assume the structure as drawn. Where two headings read alike, the source gives them in different places. A value given as a limit tells only on which side of the number the result lay.

hTRPV3, sequence (Q8NET8 whole entry): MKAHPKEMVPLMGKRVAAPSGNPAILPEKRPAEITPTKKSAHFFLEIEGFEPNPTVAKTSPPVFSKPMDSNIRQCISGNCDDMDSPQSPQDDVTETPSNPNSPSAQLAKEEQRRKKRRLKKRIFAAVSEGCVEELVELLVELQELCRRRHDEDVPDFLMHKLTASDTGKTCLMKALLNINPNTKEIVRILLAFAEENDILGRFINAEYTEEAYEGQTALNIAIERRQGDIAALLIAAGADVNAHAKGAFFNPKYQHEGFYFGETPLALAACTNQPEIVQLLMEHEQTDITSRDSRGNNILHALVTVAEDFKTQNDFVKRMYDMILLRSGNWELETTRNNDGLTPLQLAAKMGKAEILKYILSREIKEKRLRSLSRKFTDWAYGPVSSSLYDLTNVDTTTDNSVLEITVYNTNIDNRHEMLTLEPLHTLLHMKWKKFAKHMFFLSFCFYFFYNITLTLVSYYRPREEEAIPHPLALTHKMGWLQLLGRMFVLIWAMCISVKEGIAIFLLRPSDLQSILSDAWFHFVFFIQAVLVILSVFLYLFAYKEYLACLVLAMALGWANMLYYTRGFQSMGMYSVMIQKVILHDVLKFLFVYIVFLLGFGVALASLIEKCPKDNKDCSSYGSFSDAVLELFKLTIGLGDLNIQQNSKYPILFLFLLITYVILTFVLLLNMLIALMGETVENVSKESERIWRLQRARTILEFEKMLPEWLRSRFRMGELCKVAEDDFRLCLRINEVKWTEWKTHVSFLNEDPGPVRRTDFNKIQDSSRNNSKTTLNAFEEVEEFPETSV

In the case of `OCCOc1cc(-c2ccccc2)ccc1N1CC[C@@H](Oc2ccc(C(F)(F)F)cn2)C1` [Compound 1-117, (R)-2-(4-(3-(5-(trifluoromethyl)pyridin-2-yloxy)pyrrolidin-1-yl)biphenyl-3-yloxy)ethanol], the IC50 was greater than 1000 nM on hTRPV3 (setting [3]), 1920 nM at hTRPV3 (setting [4]), 100 to 1000 nM at hTRPV3 (setting [5]) and 486 nM at hTRPV3 (setting [6]). This compound gave a solubility at 40 min in series [1] of roughly 2 µM (≈ 0.889 µg/mL). The half-life at 1 μM in series [2] turned out to be 79.8 min.
As for `OCCOc1cc(-c2ccccc2Cl)ccc1N1CC[C@H](Oc2ccc(C(F)(F)F)cn2)C1` [Compound 1-133, (S)-2-(2′-chloro-4-(3-(5-(trifluoromethyl)pyridin-2-yloxy)pyrrolidin-1-yl)biphenyl-3-yloxy)ethanol], the IC50 on hTRPV3 (setting [3]) is greater than 1000 nM; on hTRPV3 (setting [4]) it was 1120 nM. Besides, the solubility at 40 min in series [1] worked out at 0.56 µM (≈ 0.268 µg/mL). Besides, the half-life at 1 μM in series [2] amounted to 55 min.
With `NC(=O)c1cc(C(=O)c2ccccc2)ccc1N1CC[C@H](Oc2ncccc2Cl)C1` [Compound 1-136, (S)-5-benzoyl-2-(3-(3-chloropyridin-2-yloxy)pyrrolidin-1-yl)benzamide], the IC50 on hTRPV3 (hTRPV3 Patch P1 Inwd (nM)) is greater than 1000 nM; against hTRPV3 (hTRPV3 Patch P2 Inwd (nM)), greater than 1000 nM; on hTRPV3 (read-out: hTRPV3 (nM) (Phase 1)), 1620 nM; at hTRPV3 (read-out: hTRPV3 (nM) (Phase 2)) it was 1670 nM. The solubility at 40 min in series [1] was greater than 15 µM. Further, the half-life at 1 μM in series [2] was determined as 19.7 min.
In the case of `Cc1ccc(O[C@H]2CCN(c3ccc(-c4ccccc4)cc3CO)C2)nc1` [Compound 1-141, (S)-(4-(3-(5-methylpyridin-2-yloxy)pyrrolidin-1-yl)biphenyl-3-yl)methanol], the results for the IC50 at hTRPV3 (setting [3]) and at hTRPV3 (setting [4]) were 100 to 1000 nM and 125 nM, respectively. This compound also yielded a solubility at 40 min in series [1] of roughly 0.97 µM (≈ 0.35 µg/mL). For the same compound, in series [2], the half-life at 1 μM was found to be 38.4 min.
Turning to `OCCc1cc(-c2ccccc2)ccc1N1CC[C@H](Oc2ccc(C(F)(F)F)cn2)C1` [Compound 1-142, (S)-2-(4-(3-(5-(trifluoromethyl)pyridin-2-yloxy)pyrrolidin-1-yl)biphenyl-3-yl)ethanol], the IC50 on hTRPV3 (setting [3]) is 100 to 1000 nM; on hTRPV3 (setting [4]) it was 275 nM. Besides, the “Solubility Ringer (nM)” value in series [1] (room temperature) was “BLQ”. For the same compound, in series [2], the half-life at 1 μM was 65.2 min.
The matching figures for `COc1ccccc1-c1ccc(N2CC[C@H](Oc3ccc(C(F)(F)F)cn3)C2)c(CO)c1` [Compound 1-151, (S)-(2′-methoxy-4-(3-(5-(trifluoromethyl)pyridin-2-yloxy)pyrrolidin-1-yl)biphenyl-3-yl)methanol]: 100 to 1000 nM, 125 nM, “BLQ” and 38.9 min.
With `CC(=O)c1ccccc1-c1ccc(N2CC[C@H](Oc3ccc(C(F)(F)F)cn3)C2)c(CO)c1` [Compound 1-157, (S)-1-(3′-(hydroxymethyl)-4′-(3-(5-(trifluoromethyl)pyridin-2-yloxy)pyrrolidin-1-yl)biphenyl-2-yl)ethanone], the results for the IC50 at hTRPV3 (setting [3]) and on hTRPV3 (setting [4]) were 100 to 1000 nM and 211 nM, respectively. The same compound registered a solubility at 40 min in series [1] of roughly 1.8 µM (≈ 0.822 µg/mL). In addition, in series [2], the half-life at 1 μM worked out at 17.5 min.
Take `COCc1ccccc1-c1ccc(N2CC[C@H](Oc3ccc(C(F)(F)F)cn3)C2)c(CO)c1` [Compound 1-160, (S)-(2′-(methoxymethyl)-4-(3-(5-(trifluoromethyl)pyridin-2-yloxy)pyrrolidin-1-yl)biphenyl-3-yl)methanol]: the IC50 is 10 to 100 nM at hTRPV3 (setting [3]), 71.6 nM on hTRPV3 (setting [4]), 100 to 1000 nM at hTRPV3 (setting [5]) and 106 nM at hTRPV3 (setting [6]). This compound displayed a solubility at 40 min in series [1] of roughly 0.4 µM (≈ 0.183 µg/mL). In series [2], the half-life at 1 μM is 19.1 min.
As to `O=C(CO)c1cc(-c2ccccc2)ccc1N1CC[C@H](Oc2ccc(C(F)(F)F)cn2)C1` [Compound 1-178, (S)-2-hydroxy-1-(4-(3-(5-(trifluoromethyl)pyridin-2-yloxy)pyrrolidin-1-yl)biphenyl-3-yl)ethanone], the results for the IC50 at hTRPV3 (setting [5]) and at hTRPV3 (setting [6]) were 100 to 1000 nM and 146 nM, respectively. In series [1], this compound displayed a solubility at 40 min of roughly 0.2 µM (≈ 0.0885 µg/mL). Further, in series [2], the half-life at 1 μM turned out to be 66.5 min.
As to `COc1ccccc1Oc1ccc(N2CC[C@H](Oc3ccc(C)cn3)C2)c(CO)n1` [Compound 1-205, (S)-(6-(2-methoxyphenoxy)-3-(3-(5-methylpyridin-2-yloxy)pyrrolidin-1-yl)pyridin-2-yl)methanol], the IC50 was greater than 1000 nM on hTRPV3 (setting [3]), roughly 3000 nM at hTRPV3 (setting [4]), greater than 1000 nM at hTRPV3 (setting [5]) and roughly 6000 nM at hTRPV3 (setting [6]). The compound also displayed a solubility at 40 min in series [1] greater than 7.2 µM. In addition, the half-life at 1 μM in series [2] stood at 16 min.
Consider `Cc1ccccc1C(=O)c1ccc(N2CC[C@H](Oc3ncccc3F)C2)c(CO)c1` [Compound 1-243, (S)-(4-(3-(3-fluoropyridin-2-yloxy)pyrrolidin-1-yl)-3-(hydroxymethyl)phenyl)(o-tolyl)methanone], for which the IC50 at hTRPV3 (setting [3]) is 100 to 1000 nM; on hTRPV3 (setting [4]), 296 nM. The compound further returned a solubility at 40 min in series [1] of roughly 7.34 µM (≈ 2.98 µg/mL). The half-life at 1 μM in series [2] was found to be 6.26 min.
As to `Cc1ccccc1C(=O)c1ccc(N2CC[C@H](Oc3ncccc3Cl)C2)c(CO)c1` [Compound 1-246, (S)-(4-(3-(3-chloropyridin-2-yloxy)pyrrolidin-1-yl)-3-(hydroxymethyl)phenyl)(o-tolyl)methanone], the IC50 on hTRPV3 (setting [3]) is 100 to 1000 nM; on hTRPV3 (setting [4]), 136 nM; on hTRPV3 (setting [5]), 100 to 1000 nM; at hTRPV3 (setting [6]), 136 nM. Moreover, the solubility at 40 min in series [1] is roughly 1.87 µM (≈ 0.791 µg/mL). Further, the half-life at 1 μM in series [2] is 7.36 min.
With `Cc1ccccc1C(O)c1ccc(N2CC[C@H](Oc3ncccc3Cl)C2)c(CO)c1` (stereo partly drawn) [Compound 1-247, (4-((S)-3-(3-chloropyridin-2-yloxy)pyrrolidin-1-yl)-3-(hydroxymethyl)phenyl)(o-tolyl)methanol], the IC50 is 100 to 1000 nM on hTRPV3 (setting [3]), 132 nM on hTRPV3 (setting [4]), 100 to 1000 nM at hTRPV3 (setting [5]) and 202 nM on hTRPV3 (setting [6]). Moreover, the solubility at 40 min in series [1] was greater than 9 µM. In series [2], the half-life at 1 μM came out at 13.1 min.
Regarding `CCc1ccccc1C(=O)c1ccc(N2CC[C@H](Oc3ncccc3Cl)C2)c(CO)c1` [Compound 1-251, (S)-(4-(3-(3-chloropyridin-2-yloxy)pyrrolidin-1-yl)-3-(hydroxymethyl)phenyl)(2-ethylphenyl)methanone], the figures for the IC50 at hTRPV3 (setting [3]) and at hTRPV3 (setting [4]) were 10 to 100 nM and 102 nM, respectively. For the same compound, in series [1] (room temperature), the “Solubility Ringer” value was greater than 3.6 µM. In addition, the “LM T1/2 (min) (rat)” value in series [2] (1 μM) is listed as 6.25 (rat) min.
Turning to `CCc1ccccc1C(=O)c1ccc(N2CC[C@H](Oc3ncccc3Cl)C2)c(CO)c1` [Compound 1-256, (S)-(4-(3-(3-chloropyridin-2-yloxy)pyrrolidin-1-yl)-3-(hydroxymethyl)phenyl)(2-ethylphenyl)methanone], the IC50 at hTRPV3 (setting [3]) was 10 to 100 nM; on hTRPV3 (setting [4]) it was 50.9 nM. In addition, in series [1], the solubility at 40 min was roughly 0.45 µM (≈ 0.197 µg/mL). Also, the half-life at 1 μM in series [2] was 6.05 min.
For `OCc1cc(C(O)c2ccccc2Cl)ccc1N1CC[C@H](Oc2ncccc2F)C1` (stereo partly drawn) [Compound 1-264, (2-chlorophenyl)(4-((S)-3-(3-fluoropyridin-2-yloxy)pyrrolidin-1-yl)-3-(hydroxymethyl)phenyl)methanol], the IC50 on hTRPV3 (setting [3]) was 10 to 100 nM; at hTRPV3 (setting [4]), 54.1 nM; at hTRPV3 (setting [5]), 10 to 100 nM; at hTRPV3 (setting [6]), 79.3 nM. The compound further showed a solubility at 40 min in series [1] greater than 13.2 µM. Further, the half-life at 1 μM in series [2] came out at 19.4 min.
Consider `CCc1ccccc1Oc1ccc(N2CC[C@H](Oc3ncccc3F)C2)c(CO)c1` [Compound 1-267, (S)-(5-(2-ethylphenoxy)-2-(3-(3-fluoropyridin-2-yloxy)pyrrolidin-1-yl)phenyl)methanol], for which the IC50 at hTRPV3 (setting [3]) is 10 to 100 nM; at hTRPV3 (setting [4]), 19.1 nM. In addition, the solubility at 40 min in series [1] is roughly 0.38 µM (≈ 0.155 µg/mL). Also, the half-life at 1 μM in series [2] was 30.6 min.
As to `CCc1ccccc1Oc1ccc(N2CC[C@H](Oc3ncccc3C)C2)c(CO)c1` [Compound 1-268, (S)-(5-(2-ethylphenoxy)-2-(3-(3-methylpyridin-2-yloxy)pyrrolidin-1-yl)phenyl)methanol], the IC50 on hTRPV3 (setting [3]) was less than 10 nM; on hTRPV3 (setting [4]), 2.8 nM; on hTRPV3 (setting [5]), less than 10 nM; on hTRPV3 (setting [6]), roughly 2.54 nM. The compound further displayed a solubility at 40 min in series [1] of 0.25 µM (≈ 0.101 µg/mL). Besides, the half-life at 1 μM in series [2] amounted to 22 min.
For `OCc1cc(Oc2ccccc2F)ccc1N1CC[C@H](Oc2ncccc2Cl)C1` [Compound 1-270, (S)-(2-(3-(3-chloropyridin-2-yloxy)pyrrolidin-1-yl)-5-(2-fluorophenoxy)phenyl)methanol], the IC50 was less than 10 nM at hTRPV3 (setting [3]), 9.39 nM on hTRPV3 (setting [4]), less than 10 nM on hTRPV3 (setting [5]) and 7.44 nM at hTRPV3 (setting [6]). The compound further yielded a solubility at 40 min in series [1] of 1 µM (≈ 0.415 µg/mL). In addition, in series [2], the half-life at 1 μM turned out to be 24.3 min.
Regarding `CCc1ccccc1Oc1ccc(N2CC[C@H](Oc3ccccn3)C2)c(CO)c1` [Compound 1-275], the IC50 at hTRPV3 (setting [3]) is 10 to 100 nM; at hTRPV3 (setting [4]) it was 24.8 nM. The compound also registered a solubility at 40 min in series [1] of roughly 1 µM (≈ 0.39 µg/mL). In series [2], the half-life at 1 μM turned out to be 22.8 min.
